Measured values from PubChem BioAssay AID330 (DTP/NCI, 2004).
Values joined by “and” are separate entries in the source; they are usually repeats but may differ in a detail not shown here. Identical values can stand only once. Inconclusive results and toxic doses are left out. How the source made its calls: active means survival T/C of 150% or more; inactive means T/C below 125% in these data. Peptide text beside a SMILES is read from it. * marks the point of attachment. Trt = c1ccc(C(c2ccccc2)(c2ccccc2)*)cc1; Benzhydryl = c1ccc(C(c2ccccc2)*)cc1; Cbz = O=C(OCc1ccccc1)*; OtBu = CC(C)(C)O*

Test system: P388 leukemia ip, CD2F1 mice, survival T/C
Experiment: NCI In Vivo Anticancer Drug Screen. Data for tumor model P388 Leukemia (intraperitoneal) in CD2F1 (CDF1) mice
Settings: endpoint: median survival time, higher = longer survival
Summary of the method: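 Mice carrying the transplanted tumor received test compound or vehicle. Survival was recorded in each group, and the value is the treated-group measurement divided by that of the vehicle-treated control group.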

[1] = dose: 12.5 mg/kg/injection, schedule: Q01DX005 (ip), vehicle: Klucel (hydroxypropylcellulose) (HPC)
[2] = dose: 25.0 mg/kg/injection, schedule: Q01DX005 (ip), vehicle: Klucel (hydroxypropylcellulose) (HPC)
[3] = dose: 100.0 mg/kg/injection, schedule: Q01DX001 (ip), vehicle: Klucel (hydroxypropylcellulose) (HPC)
[4] = dose: 200.0 mg/kg/injection, schedule: Q01DX001 (ip), vehicle: Klucel (hydroxypropylcellulose) (HPC)
[5] = dose: 400.0 mg/kg/injection, schedule: Q01DX001 (ip), vehicle: Klucel (hydroxypropylcellulose) (HPC)
[6] = dose: 25.0 mg/kg/injection, schedule: Q01DX009 (ip), vehicle: saline
[7] = dose: 50.0 mg/kg/injection, schedule: Q01DX009 (ip), vehicle: saline
[8] = dose: 50.0 mg/kg/injection, schedule: Q01DX005 (ip), vehicle: Klucel (hydroxypropylcellulose) (HPC)
[9] = dose: 100.0 mg/kg/injection, schedule: Q01DX005 (ip), vehicle: Klucel (hydroxypropylcellulose) (HPC)
[10] = dose: 200.0 mg/kg/injection, schedule: Q01DX005 (ip), vehicle: Klucel (hydroxypropylcellulose) (HPC)
[11] = dose: 50.0 mg/kg/injection, schedule: Q01DX009 (ip), vehicle: saline with Tween-80
[12] = dose: 100.0 mg/kg/injection, schedule: Q01DX009 (ip), vehicle: saline with Tween-80
[13] = dose: 100.0 mg/kg/injection, schedule: Q01DX009 (ip), vehicle: saline
[14] = dose: 50.0 mg/kg/injection, schedule: Q01DX005 (ip), vehicle: saline with Tween-80
[15] = dose: 100.0 mg/kg/injection, schedule: Q01DX005 (ip), vehicle: saline with Tween-80
[16] = dose: 200.0 mg/kg/injection, schedule: Q01DX005 (ip), vehicle: saline with Tween-80
[17] = dose: 60.0 mg/kg/injection, schedule: Q01DX005 (ip), vehicle: saline with Tween-80
[18] = dose: 120.0 mg/kg/injection, schedule: Q01DX005 (ip), vehicle: saline with Tween-80
[19] = dose: 240.0 mg/kg/injection, schedule: Q01DX005 (ip), vehicle: saline with Tween-80

Measured: T/C

CCCNC(=O)ON1C(=O)C2C3C=CC(C3)C2C1=O (stereo not drawn)
inactive: dose: 6.25 mg/kg/injection, schedule: Q01DX005 (ip), vehicle: Klucel (hydroxypropylcellulose) (HPC) 96 % of control | [1] 104 % of control | [2] 96 % of control

c1ccc(C2CO2)cc1 (stereo not drawn)
inactive: [3] 106 % of control | [4] 100 % of control | [5] 102 % of control

CCOC(=O)C1=C(C#N)C(C(=O)OCC)c2ncccc21 (stereo not drawn)
inactive: dose: 25.0 mg/kg/injection, schedule: Q01DX009 (ip), vehicle: suspension in saline 93 % of control | dose: 50.0 mg/kg/injection, schedule: Q01DX009 (ip), vehicle: suspension in saline 93 % of control | dose: 100.0 mg/kg/injection, schedule: Q01DX009 (ip), vehicle: suspension in saline 100 % of control | dose: 200.0 mg/kg/injection, schedule: Q01DX009 (ip), vehicle: suspension in saline 92 % of control

COc1cccc2c1C(=O)c1c(O)c3c(c(O)c1C2=O)C[C@@](O)(C(=O)CO)C[C@@H]3OC1CC(NC(=S)Nc2ccc3ccccc3c2)C(O)C(C)O1 (stereo partly drawn)
inactive: dose: 3.13 mg/kg/injection, schedule: Q01DX009 (ip), vehicle: saline 92 % of control | dose: 6.25 mg/kg/injection, schedule: Q01DX009 (ip), vehicle: saline 99 % of control | dose: 12.5 mg/kg/injection, schedule: Q01DX009 (ip), vehicle: saline 99 % of control | [6] 101 % of control | [7] 108 % of control

O=C1c2c(Cl)ccc([N+](=O)[O-])c2C(=O)c2c(Cl)ccc([N+](=O)[O-])c21
inactive: [1] 106 % of control | [2] 104 % of control | [8] 99 % of control and 104 % of control | [9] 94 % of control | [10] 94 % of control

O=C1C2CCCCC2C1(Cl)Cl (stereo not drawn)
inactive: dose: 25.0 mg/kg/injection, schedule: Q01DX009 (ip), vehicle: saline with Tween-80 103 % of control | [11] 99 % of control | [12] 118 % of control

c1ccc2nc(N3CCCC3)c(N3CCCCC3)nc2c1
inactive: [8] 102 % of control | [9] 94 % of control | [10] 100 % of control

c1cn[nH]c1
inactive: [6] 93 % of control | [7] 101 % of control | [13] 111 % of control

c1nc(N2CCOCC2)c2[nH]cnc2n1
inactive: [8] 99 % of control and 91 % of control | [9] 88 % of control | [10] 91 % of control

CC1CCC2(C(=O)O)CCC3(C)C(=CCC4C5(C)CC(O)C(O)C(C)(C(=O)O)C5CCC43C)C2C1(C)O (stereo not drawn)
inactive: dose: 33.0 mg/kg/injection, schedule: Q01DX001 (ip), vehicle: saline with Tween-80 100 % of control | dose: 50.0 mg/kg/injection, schedule: Q01DX001 (ip), vehicle: saline with Tween-80 100 % of control | dose: 75.0 mg/kg/injection, schedule: Q01DX001 (ip), vehicle: saline with Tween-80 90 % of control

O=c1ccn(C2OC(COC(c3ccccc3)(c3ccccc3)c3ccccc3)C(OC(c3ccccc3)(c3ccccc3)c3ccccc3)C2O)c(=O)[nH]1 (stereo not drawn)
inactive: [2] 99 % of control | [8] 95 % of control | [9] 105 % of control | [10] 97 % of control

N#CC#Cc1cccc(C#CC#N)c1
inactive: dose: 6.25 mg/kg/injection, schedule: Q01DX001 (ip), vehicle: saline with Tween-80 110 % of control | dose: 12.5 mg/kg/injection, schedule: Q01DX001 (ip), vehicle: saline with Tween-80 100 % of control

Cc1cc(=O)n(-c2ccc(-c3ccc(-n4c(C)c(C(=O)O)c(C)cc4=O)cc3)cc2)c(C)c1C(=O)O
inactive: [14] 102 % of control | [15] 100 % of control | [16] 106 % of control

O=C(O)Cc1c(-c2noc(-c3ccccc3)c2CC(=O)O)noc1-c1ccccc1
inactive: [17] 99 % of control | [18] 103 % of control | [19] 108 % of control

CC(C)(C)OC(=O)CNC(=O)C(Cc1ccccc1)NC(=O)C(CSC(c1ccccc1)(c1ccccc1)c1ccccc1)NC(=O)CNC(=O)C(Cc1ccccc1)NC(=O)CNC(=O)C(CSC(c1ccccc1)c1ccccc1)NC(=O)C(CSC(c1ccccc1)(c1ccccc1)c1ccccc1)NC(=O)OCc1ccccc1 (stereo not drawn) (Cbz-C(Trt)C(Benzhydryl)GFGC(Trt)FG-OtBu; configuration not given here)
inactive: dose: 60.0 mg/kg/injection, schedule: Q01DX005 (ip), vehicle: Klucel (hydroxypropylcellulose) (HPC) 100 % of control | dose: 120.0 mg/kg/injection, schedule: Q01DX005 (ip), vehicle: Klucel (hydroxypropylcellulose) (HPC) 98 % of control

CCN(CC)C(=O)C(Cc1ccc(OC)c(OC)c1)C(Cc1ccc(OC)c(OC)c1)C(=O)O (stereo not drawn)
inactive: dose: 100.0 mg/kg/injection, schedule: Q04DX003 (ip), vehicle: other 95 % of control | dose: 200.0 mg/kg/injection, schedule: Q04DX003 (ip), vehicle: other 95 % of control | dose: 400.0 mg/kg/injection, schedule: Q04DX003 (ip), vehicle: other 95 % of control

O=[N+]([O-])c1ccc(N2CC2)c2c1no[n+]2[O-]
inactive: dose: 7.5 mg/kg/injection, schedule: Q04DX003 (ip), vehicle: saline with Tween-80 101 % of control | dose: 15.0 mg/kg/injection, schedule: Q04DX003 (ip), vehicle: saline with Tween-80 99 % of control | dose: 30.0 mg/kg/injection, schedule: Q04DX003 (ip), vehicle: saline with Tween-80 100 % of control | dose: 60.0 mg/kg/injection, schedule: Q04DX003 (ip), vehicle: saline with Tween-80 100 % of control

O=S1(=O)CCN(c2ccccc2)CC1
inactive: [7] 96 % of control | [13] 98 % of control | dose: 200.0 mg/kg/injection, schedule: Q01DX009 (ip), vehicle: saline 95 % of control

CN(C)Cc1c(N=Nc2ccc3ccc4cccc5ccc2c3c45)[nH]c2ccccc12
inactive: [11] 103 % of control | [12] 115 % of control | dose: 200.0 mg/kg/injection, schedule: Q01DX009 (ip), vehicle: saline with Tween-80 115 % of control

Cc1nnsc1C(=O)NCc1c(F)cccc1Cl
inactive: [8] 97 % of control | [9] 99 % of control | [10] 98 % of control

Cc1ccc(-c2nc3n(c2C=O)CCS3)cc1
inactive: [3] 112 % of control | [4] 106 % of control | [5] 98 % of control

COc1cc2ccc3c4c(OC)c(OC)c(OC)cc4c[n+](C)c3c2cc1OC
inactive: dose: 2.0 mg/kg/injection, schedule: Q01DX009 (ip), vehicle: water 111 % of control | dose: 4.0 mg/kg/injection, schedule: Q01DX009 (ip), vehicle: water 113 % of control | dose: 8.0 mg/kg/injection, schedule: Q01DX009 (ip), vehicle: water 110 % of control | dose: 16.0 mg/kg/injection, schedule: Q01DX009 (ip), vehicle: water 118 % of control

COC(=O)C1(C2(C(=O)OC)NC(=S)NC(=O)C2C#N)CCCC1=O (stereo not drawn)
inactive: [17] 108 % of control | [18] 105 % of control | [19] 105 % of control

CCN(CC)C(=O)c1ccc2c(c1OCOC)CCC2
inactive: [14] 107 % of control | [15] 97 % of control | [16] 92 % of control
